The subject of one data set is Rats. In words: Gastrolesive action (gastric mucosa examination). Conditions: rats fasting 18 hours; 5 hours 30 minutes after treatment; Ibuprofen 100 mg/kg/os, AFP-695 150 mg/kg/os. The class given is in vivo. As for the experimental part: 5 Hours and 30 minutes after treatments, the animals have been sacrificed and the stomach has been withdrawn for gastric mucosa examination.

Data set [1] is described as follows: Acute toxicity (method of Litchfield and Wilcoxon). Conditions: in vivo, oral, os. From the text: The acute toxicity has been determined in Swiss mouse and in Wistar rat for different administration routes, according to the method of Litchfield J.T. and Wilcoxon [J. Pharm. Exp. Therap. 96, 99-113, (1949)].
The results obtained are reported in the following Table I; from the same it can be pointed out how AFP is endowed with a very low acute toxicity.

A further data set has as its system mouse. In words: Analgesic activity, writhings by phenylquinone. The class given is in vivo. Conditions: 100 mg/kg os. As for the experimental part:
The test of writhings by phenylquinone in the mouse has been used.
The two drugs have been administered per os 30 minutes […] intraperitoneal injection of phenylquinone.

Another data set relates to male rabbit. In words: Mucosecretolytic activity (technique of Giraldez et al). The class given is in vivo. As to conditions: 500 mg/kg/os. From the text: The mucosecretolytic activity has been studied in the male rabbit according to the technique of Giraldez, Grass and Bruseghini(Abstr. Comp. Int. Pharm. N. 1086-Paris 1978), by administration by the oral route, comparing AFP-695 with carboxymethylcysteine and sobrerol at the dose hereinafter stated.

The next data set deals with rat. In words: Antiinflammatory activity, subplantar edema by carrageenin. Conditions: Ibuprofen 100 mg/kg os, AFP-695 150 mg/kg os.
A further data set deals with Sprague-Dawley rats. In words: Antiinflammatory activity, pleuritis by carrageenin (method of Vinegar). As to conditions: oral route. The class given is in vivo.
In another data set the test system is rabbits. The data set can be described thus: Anti-cough activity, cough induced by citric acid aerosol. As to conditions: mean number of cough strokes; endoperitoneal route; Codeine 12.5 mg/kg, AFP-695 150 mg/kg.
The nature of data set [2]: Pharmacokinetics, plasma and lung levels by gas chromatography. The class given is in vivo, rats. Conditions: 100 mg/kg per os; at 30 minutes, and in some instance also at 1 hour. The procedure: At the moment of treatment rats were fasting since 18 hours. Rats have been then sacrificed in groups of 4 at different times: 30 min., 1 h, 2 h, 4 h, 6 h.
The concentration both of unchanged products and of their metabolites have been measured by gas chromatography in plasma and in the lung.

Data set [3] can be described thus: Solubility of the product of the Example. The class given is physicochemical. An excerpt: Its structure is confirmed by analytical and spectroscopical data. • Elemental analysis: • for C23H3403(M.W. = 358.49) • calcd. % C = 77.05; H = 9.56 • found % C = 76.88; H = 9.60. • I.R. Spectrum • (liquid film; absorption band values are expressed in cm^-1): • stretch 0-H 3400-3250 • stretch C=O 1735 • stretch C-0 1205 • H^1 NMR Spectrum • (recorded in CDCI3, internal reference TMS; values of the chemical shifts are expressed in δ): • 0.65-1.2(m, 12H, -CH(CH3)2, C(CH3)2); • 1.3-2 (m, 12H, CH2―CH―CH2, CH2-CH, CH3-CH, OH mobile); • 2.3 (d, 3H, =C-CH3); • 3.5 (q, 1 H, CH3-CH-CO); • 4.7-5 (m, 1H,―CH―O―CO); • 5.3-5.6 (m, 1H, =CH-CH2); • 6.6-7 (m, 4H, aromatics).

The next data set relates to male Wistar rat. The data set can be described thus: Bronchosecretogogue activity (Mawatari technique). The class given is in vivo. Conditions: 500 mg/kg/os; FlNa = Sodium fluoresceine. An excerpt: The bronchosecretogogue activity has been determined in male Wistar rat by per os administration according to the method of Mawatari [Mawatari H., Kagoshima Daigaku Igaku-Zasshi, 27, 561 (1976)], comparing AFP-695 with carboxymethylcysteine and sobrerol at the doses hereinafter stated.

Experimental findings from EP0091995B1, “New compound having antiinflammatory, analgesic and mucoregulating activity, process for its production and relative pharmaceutical compositions” (AUSONIA FARMACEUTICI S.r.l., priority 1982, dated 1983) are described below.

Molecules are shown by their SMILES.

As for `CC1=CCC(C(C)(C)O)CC1OC(=O)C(C)c1ccc(CC(C)C)cc1` (stereo not drawn) [AFP-695, 2-methyl-5-(1-hydroxy-1-methylethyl)-cyclohex-2-enyl 2-(4-isobutylphenyl)propionate], in the data set on Rats, the Mean ulcers size is 0.9 ± 0.3 mm. This molecule displayed an LD50 in data set [1] (Swiss, mouse) of 1800 mg/kg. In data set [1] (Wistar, rat), this molecule had an LD50 of 2200 mg/kg. In the data set on mouse, the “% Inhibition in comparison with controls” value came to 71.09%, the “Mean No. of writhings” value is 3.7 ± 1.2 and the “No. animals with writhings” value is listed as 3/10. In the data set on male rabbit, the “% Increase of secretion in comparison with controls” value was determined as 35.7%. For the same molecule, the “AREA % Inhibition in comparison with controls” value in the data set on rat was 42.8%. Also, in the data set with rat (area of limb volume over 0-5 hours), the “AREA Absolute value” is 156.2. The “MEAN LIMB VOLUME AT DIFFERENT HOURS AFTER TREATMENT 0” value with rat (hour 0, 30 minutes before carrageenin) is on record as 22.8. In addition, in the data set on rat (hour 1), the “MEAN LIMB VOLUME AT DIFFERENT HOURS AFTER TREATMENT 1” value was 27.2. The “MEAN LIMB VOLUME AT DIFFERENT HOURS AFTER TREATMENT 2” value in the data set with rat (hour 2) turned out to be 29.6. For the same molecule, in the data set on rat (hour 3), the “MEAN LIMB VOLUME AT DIFFERENT HOURS AFTER TREATMENT 3” value worked out at 31.4. In the data set with rat (hour 4), the “MEAN LIMB VOLUME AT DIFFERENT HOURS AFTER TREATMENT 4” value is recorded as 32.6. In the data set on rat (hour 5), the “MEAN LIMB VOLUME AT DIFFERENT HOURS AFTER TREATMENT 5” value came to 34.9. Also, in the data set with Sprague-Dawley rats (24th hour, equiponderant doses), the “decrease of leucocytes number” value turned out to be 60.89% and the “decrease of the exudate volume, in comparison with control” value amounted to 51.02%. For the same molecule, in the data set on Sprague-Dawley rats (fifth hour after treatment), the “decrease of the number of leucocytes” value was 70.91%. In addition, the “decrease of the exudate” value with Sprague-Dawley rats (fifth hour after treatment, 30 minutes before intrapleural injection) is listed as 41.84%. In the data set on rabbits, the “% Inhibition in comparison with controls” value was 78.1%. Besides, in [2], the “unchanged AFP-695 in plasma” value is given as “has been found in plasma”. For the same molecule, the “solubility in the common organic solvents” value in [3] (common organic solvents) is listed as “easily soluble in the common organic solvents”. In data set [3] (water), the solubility in water result is listed as “substantially insoluble in water”. Besides, the “% Increase of FlNa(*) in comparison with controls” value in the data set on male Wistar rat came to 51.6%.

With `COc1ccc2c3c1O[C@H]1[C@@H](O)C=C[C@H]4[C@@H](C2)N(C)CC[C@@]341` [Codeine, codeine, reference compound], in the data set on rabbits, the “% Inhibition in comparison with controls” value came out at 76.7%.

Molecule `CC(C)Cc1ccc(C(C)C(=O)O)cc1` (stereo not drawn) [Ibuprofen, 2-(4-isobutylphenyl)-propionic acid, reference compound] registered a Mean ulcers size in the data set on Rats of 9.6 ± 1.8 mm. In the data set with mouse, the “% Inhibition in comparison with controls” value is on record as 89.84%, the “Mean No. of writhings” value was determined as 1.3 ± 0.5 and the “No. animals with writhings” value is given as 1/10. Besides, in the data set on rat, the “AREA % Inhibition in comparison with controls” value is given as 44.2%. Besides, the “decrease of leucocytes number” value in the data set on Sprague-Dawley rats (24th hour, equiponderant doses) came to 5.58%.

With `CC1=CCC(C(C)(C)O)CC1O` (stereo not drawn) [Sobrerol, 2-methyl-5-(1-hydroxy-1-methyl-ethyl)-2-cyclohexen-1-ol, reference compound], in the data set with male rabbit, the “% Increase of secretion in comparison with controls” value amounted to 36.8%. In the data set on male Wistar rat, the “% Increase of FlNa(*) in comparison with controls” value came to 33.4%.

In general, LD50 refers to the dose expected to kill half of the subjects tested. The low end stands for greater toxicity, the high end for lower toxicity.
